{"source": "patent US20060134213A1", "about": "(priority 2004, published 2006)", "test": "Clinical single-dose crossover study: relative bioavailability and dose proportionality from plasma ramipril and ramiprilat, tablets vs ALTACE capsules", "format": "in vivo, human", "key": {"[1]": {"settings": "doses increased from 2.5 to 20 mg"}}, "description": "The study followed a single-dose, open-label, four-period, four-treatment, crossover design and utilized a two-stage randomization process for 4 dose levels and 2 formulations. Each treatment was separated by a 2 week washout period. All treatments were administered following an overnight fast.\nThirty subjects were planned to be enrolled in the study to complete 24.\nThe ANOVA model included subject, period and formulation as fixed effects, and subject as a random effect. […] The ratios of LSM and CI were expressed as a percentage relative to the commercial capsules (ALTACE®).\nSeparately for the test (A, C, E, and G) and reference (B, D, F, and H) formulations, dose proportionality was evaluated. […] The ANOVA model included period as a fixed effect, intercept as a random effect, and in-transformed dose as a covariate."}
{"smiles": "C[C@H](N[C@@H](CCc1ccccc1)C(=O)O)C(=O)N1[C@H](C(=O)O)C[C@@H]2CCC[C@@H]21", "note": "[ramiprilat]", "values": [{"measurement": "increase of AUC0-24 with dose (geometric means)", "setting": "[1]", "result": "proportional"}, {"measurement": "increase of Cmax with dose (geometric means)", "setting": "[1]", "result": "more than proportional increase"}, {"measurement": "increase of AUC0-t and AUC0-48 with dose (geometric means)", "setting": "ramipril doses 2.5 to 20 mg", "result": "less than proportional increase"}]}
